Reference: patent US20240209028A1, “CNP COMPOUNDS” (priority 2022, published 2024)
Starred links: 1 amine or outer side, 2 acyl side, 3 side chain; linkers in the order of their positions; H or OH if unused. Positions of bridges follow the written chain, without caps; N, C: chain ends. Residues, ends and D or L forms follow the SMILES beside them. *: point of attachment. C18 diacid = O=C(O)CCCCCCCCCCCCCCCCC(=O)*; γGlu = O=C(O)[C@H](CCC(=O)[*:2])N[*:1]; AEEA = NCCOCCOCC(=O)O

Experiments:
[1] = CNP local tolerance study in LYD pigs (s.c. injection, histopathology); type: in vivo, domestic LYD pig; settings: for local subcutaneous necrosis: 5 days after subcutaneous injections in the pig; for assessment for human subcutaneous administration: based on pig local tolerance
How it was run: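 Domestic pigs dosed s.c. mid-back, 100 or 200 μl at approx. 4400 μM, in phosphate pH 6.5 or acetate pH 4.0 buffers with glycerol or propylene glycol; saline as negative control. Sites excised 4 or 5 days post injection, H&E sections graded on 5-level scale; necrosis used as marker.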

[2] = molecular target: neprilysin (NEP) (Homo sapiens, UniProt P08473); test: In vitro neprilysin stability; settings: recombinant human neprilysin (rhNEP), pH 7.4
Procedure: Therefore, an in vitro neprilysin stability assay was set up to test the neprilysin mediated degradation of selected CNP compounds.
Procedure: In short, the assay buffer consisted of PBS-buffer (pH 7.4, ThermoFisher Scientific) with a final concentration of 0.005% v/v tween 20 (Sigma-Aldrich). Recombinant human neprilysin (rhNEP; R&D Systems) and the CNP compounds were dissolved in assay buffer. Native CNP22 (0065, Chem. 1) was included as positive control on each day of incubation. Initially, the CNP compound (the final concentration was 1000 nM) was pre-incubated in assay buffer for 10 min at 37° C. The assay was started by adding either rhNEP (final concentration was 2 μg protein per mL) or assay buffer (adsorption experiment) and the incubation was conducted at 37° C. […] The mixture was centrifuged at 13000 rpm at 4° C. for 20 minutes. After centrifugation, one volume of supernatant was mixed with one volume of Milli-Q water.
Analysis by LCMS: The mixture was analysed by LCMS using an Acquity UPLC Peptide CSH C18 analytical column from Waters (130 Å, 1.7 μm, 1*50 mm) operated at 60° C. A gradient elution was conducted with a Nexera UHPLC system (Shimadzu) using mobile phase A (consisting of Milli-Q water with 0.1% formic acid) and mobile phase B (consisting of acetonitrile with 0.1% formic acid). The flow was 0.3 ml/min. A zenoTOF 7600 mass spectrometer (Sciex) was used as detector and operated in positive electrospray ionisation mode. Data was recorded in full scan mode (m/z 300-1700).
Calibration curves were prepared in assay buffer and treated as study samples. These samples were used for calculating the concentration of the relevant CNP compound in the in vitro samples. Quality control samples were included. For at least 75% of the standards and QCs, the deviation between nominal and calculated concentration was below 20%.
All incubations were conducted in duplicate. Data was reported as percent remaining at 90 min (based on calculated concentrations) compared to the average concentration in the 0.5-minute time point samples.

[3] = Local tolerance of CNP compounds in rats (s.c. injection, histopathology); type: in vivo, Sprague Dawley rat; settings: for local subcutaneous necrosis: 5 days after subcutaneous injections in the rat; for assessment for human subcutaneous administration: based on rat local tolerance
How it was run: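 Male Sprague Dawley rats (10-11 weeks) received two s.c. injections of 250 or 350 uL compound (1000 nmol/mL formulation) in neck or flank, 120 h before necropsy; vehicle 5 mM sodium acetate/250 mM glycerol pH 4.0 or 8 mM sodium phosphate/250 mM glycerol pH 7.4. Injection sites were scored macroscopically, H&E-stained and graded on a 5-level scale (Min to Sev).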

[4] = test system: mouse metatarsal bones; test: Mouse metatarsal bone dissection and culture (ex vivo bone growth); type: cell-based, mouse (NMRI); settings: 100 nM, n=8
Experimental: The purpose of this study was to evaluate bone growth after administration of CNP compounds in an ex vivo mouse model.
Procedure: One-day old mouse pups (NMRI, Javier Labs France) were euthanised prior to dissection. All applicable international and internal Novo Nordisk guidelines for care and use of animals were followed. The three middle metatarsal bones were dissected out from each hind paw. The dissected bones were placed in 24-well cell culture plates and cultured in 400 μl a-Minimum Essential Media supplemented with 0.2% BSA, 1% Pen/Strep at 37° C. and 5% CO2. The bones from all animals were randomised into a control group and six CNP compound-treated groups (100 nM; n=8). The medium was changed every 2-3 days. All compounds were formulated according to the principles described in General Methods of Preparation—Method G. Compounds 9435 and 9483 were formulated in A) 5 mM sodium acetate, 250 mM glycerol, pH 4.0 while compounds 9384, 9407, 9480 and 9482 were formulated in B) 8 mM sodium phosphate, 250 mM glycerol, pH 7.4.
Digital pictures were captured on day 0, 4, 7, 11, and 14 using a digital camera attached to a Nikon microscope. The length of each metatarsal bone was measured using ImageJ software and increase in bone length was expressed as percentage change from the length measured at the day of dissection (Mean (SD)).
In Table 27, metatarsal bones were isolated from mice and cultured for up to 14 days. Length was measured every 3-4 days throughout the study and expressed as percentage change from day 0 (Mean (SD)). Statistically significant differences are indicated compared to control group (two-way ANOVA).

[5] = LYD pig, s.c., approx. 4400 μM, 4 or 5 days after injection

Sequence of neprilysin (NEP) (P08473 whole entry): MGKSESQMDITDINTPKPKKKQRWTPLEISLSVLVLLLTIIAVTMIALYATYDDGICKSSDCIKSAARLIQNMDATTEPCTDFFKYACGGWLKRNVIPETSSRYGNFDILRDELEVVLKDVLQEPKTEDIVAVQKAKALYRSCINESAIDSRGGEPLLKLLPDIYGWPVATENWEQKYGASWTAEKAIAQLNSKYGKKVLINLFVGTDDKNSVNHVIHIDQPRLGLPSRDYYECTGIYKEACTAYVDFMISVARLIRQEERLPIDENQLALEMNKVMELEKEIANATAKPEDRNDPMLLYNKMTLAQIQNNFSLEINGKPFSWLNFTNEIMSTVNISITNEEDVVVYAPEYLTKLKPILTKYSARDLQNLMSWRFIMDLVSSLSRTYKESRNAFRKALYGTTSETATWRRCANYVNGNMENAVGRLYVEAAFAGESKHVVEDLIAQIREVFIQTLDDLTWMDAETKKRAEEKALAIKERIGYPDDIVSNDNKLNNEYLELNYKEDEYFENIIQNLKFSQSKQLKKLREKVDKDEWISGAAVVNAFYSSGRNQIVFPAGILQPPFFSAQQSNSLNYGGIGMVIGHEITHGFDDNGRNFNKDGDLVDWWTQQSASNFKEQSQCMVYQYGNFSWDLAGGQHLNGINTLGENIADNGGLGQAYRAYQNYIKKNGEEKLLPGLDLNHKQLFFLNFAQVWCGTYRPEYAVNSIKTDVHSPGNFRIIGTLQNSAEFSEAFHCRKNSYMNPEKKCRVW

| Structure (SMILES) | Number of injections by severity of necrosis: Mild [1, 5] | Number of injections by severity of necrosis: Min. [1, 5] | remaining at 1.5 h, 1000 nM [2] | Number of injections by severity of necrosis: NAD [1, 5] | local subcutaneous necrosis [1] | assessment for human subcutaneous administration [1] | local subcutaneous necrosis [3] | assessment for human subcutaneous administration [3] | Increase in bone length, mean (%) change from day 0 ([4]; day 4 in culture) | Increase in bone length, mean (%) change from day 0 ([4]; day 7 in culture) | Increase in bone length, mean (%) change from day 0 ([4]; day 11 in culture) | Increase in bone length, mean (%) change from day 0 ([4]; day 14 in culture) |
| --- | --- | --- | --- | --- | --- | --- | --- | --- | --- | --- | --- | --- |
| CC[C@H](C)[C@@H]1NC(=O)[C@H](CCCNC(=N)N)NC(=O)[C@H](CC(=O)O)NC(=O)[C@H](CC(C)C)NC(=O)[C@@H]2CCCN2C(=O)[C@H](CC(C)C)NC(=O)CNC(=O)[C@H](Cc2ccccc2)NC(=O)[C@@H](NC(=O)CNC(=O)[C@H](CCC(N)=O)NC(=O)[C@H](CO)NC(=O)CNC(=O)CNC(=O)[C@H](CCCCN)NC(=O)[C@H](CCCCN)NC(=O)[C@H](CCC(N)=O)NC(=O)[C@H](C)NC(=O)CNC(=O)[C@H](CCCCN)NC(=O)[C@H](Cc2ccc(O)cc2)NC(=O)COCCOCCNC(=O)COCCOCCNC(=O)COCCOCCNC(=O)COCCOCCNC(=O)CC[C@H](NC(=O)CC[C@H](NC(=O)CCCCCCCCCCCCCCCCC(=O)O)C(=O)O)C(=O)O)CSSC[C@@H](C(=O)O)NC(=O)CNC(=O)[C@H](CC(C)C)NC(=O)CNC(=O)[C@H](CO)NC(=O)[C@H](CC(C)C)NC(=O)[C@H](CO)NC(=O)CNC1=O [Compound 9435] ({C18 diacid-γGlu-γGlu-AEEA-AEEA-AEEA-AEEA}-YKGAQKKGGSQGCFGLPLDRIGSLSGLGC-OH; disulfide 13-29) | 1 | 3 | 93.2% | – | – | – | – | – | – | – | – | – |
| CC[C@H](C)[C@@H]1NC(=O)[C@H](CCCNC(=N)N)NC(=O)[C@H](CC(=O)O)NC(=O)[C@H](CC(C)C)NC(=O)[C@@H]2CCCN2C(=O)[C@H](CC(C)C)NC(=O)CNC(=O)[C@H](Cc2ccccc2)NC(=O)[C@@H](NC(=O)CNC(=O)[C@H](CCC(N)=O)NC(=O)[C@H](CO)NC(=O)[C@H](CC(C)C)NC(=O)CNC(=O)[C@H](CCCCN)NC(=O)[C@H](CCCCN)NC(=O)[C@H](CCC(N)=O)NC(=O)[C@H](C)NC(=O)CNC(=O)[C@H](CCCCN)NC(=O)[C@H](Cc2ccc(O)cc2)NC(=O)COCCOCCNC(=O)COCCOCCNC(=O)COCCOCCNC(=O)COCCOCCNC(=O)CC[C@H](NC(=O)CC[C@H](NC(=O)CC[C@H](NC(=O)CCCCCCCCCCCCCCCCC(=O)O)C(=O)O)C(=O)O)C(=O)O)CSSC[C@@H](C(=O)O)NC(=O)CNC(=O)[C@H](CC(C)C)NC(=O)CNC(=O)[C@H](CO)NC(=O)[C@H](CC(C)C)NC(=O)[C@H](CO)NC(=O)CNC1=O [Compound 9480] ({C18 diacid-γGlu-γGlu-γGlu-AEEA-AEEA-AEEA-AEEA}-YKGAQKKGLSQGCFGLPLDRIGSLSGLGC-OH; disulfide 13-29) | – | – | 98.3% | 4 | – | – | – | – | – | – | – | – |
| CC[C@H](C)[C@@H]1NC(=O)[C@H](CCCNC(=N)N)NC(=O)[C@H](CC(=O)O)NC(=O)[C@H](CC(C)C)NC(=O)[C@@H]2CCCN2C(=O)[C@H](CC(C)C)NC(=O)CNC(=O)[C@H](Cc2ccccc2)NC(=O)[C@@H](NC(=O)CNC(=O)[C@H](CO)NC(=O)[C@H](CO)NC(=O)[C@H](CC(C)C)NC(=O)CNC(=O)[C@H](CCCCN)NC(=O)[C@H](CCCCN)NC(=O)[C@H](CCC(N)=O)NC(=O)[C@H](C)NC(=O)CNC(=O)[C@H](CCCCN)NC(=O)[C@H](Cc2ccc(O)cc2)NC(=O)[C@H](CCCCN)NC(=O)[C@H](CCCNC(=N)N)NC(=O)[C@H](C)NC(=O)[C@H](CCC(N)=O)NC(=O)[C@@H]2CCCN2C(=O)[C@H](Cc2c[nH]cn2)NC(=O)[C@H](CCC(=O)O)NC(=O)[C@H](CCC(N)=O)NC(=O)CC[C@H](NC(=O)CC[C@H](NC(=O)CC[C@H](NC(=O)CC[C@H](NC(=O)CC[C@H](NC(=O)CCCCCCCCCCCCCCCCC(=O)O)C(=O)O)C(=O)O)C(=O)O)C(=O)O)C(=O)O)CSSC[C@@H](C(=O)O)NC(=O)CNC(=O)[C@H](CC(C)C)NC(=O)CNC(=O)[C@H](CO)NC(=O)[C@H](CC(C)C)NC(=O)[C@H](CO)NC(=O)CNC1=O [Compound 9482] ({C18 diacid-γGlu-γGlu-γGlu-γGlu-γGlu}-QEHPQARKYKGAQKKGLSSGCFGLPLDRIGSLSGLGC-OH; disulfide 21-37) | – | – | 96.3% | 4 | – | – | – | – | – | – | – | – |
| CC[C@H](C)[C@@H]1NC(=O)[C@H](CCCNC(=N)N)NC(=O)[C@H](CC(=O)O)NC(=O)[C@H](CC(C)C)NC(=O)[C@@H]2CCCN2C(=O)[C@H](CC(C)C)NC(=O)CNC(=O)[C@H](Cc2ccccc2)NC(=O)[C@@H](NC(=O)CNC(=O)[C@H](CCC(N)=O)NC(=O)[C@H](CO)NC(=O)[C@H](CO)NC(=O)CNC(=O)[C@H](CCCCN)NC(=O)[C@H](CCCCN)NC(=O)[C@H](CCC(N)=O)NC(=O)[C@H](C)NC(=O)CNC(=O)[C@@H]2CCCN2C(=O)[C@H](C)NC(=O)[C@H](CCC(N)=O)NC(=O)CNC(=O)COCCOCCNC(=O)COCCOCCNC(=O)CC[C@H](NC(=O)CCCCCCCCCCCCCCCCC(=O)O)C(=O)O)CSSC[C@@H](C(=O)O)NC(=O)CNC(=O)[C@H](CC(C)C)NC(=O)CNC(=O)[C@H](CO)NC(=O)[C@H](CC(C)C)NC(=O)[C@H](CO)NC(=O)CNC1=O [compound 9384] ({C18 diacid-γGlu-AEEA-AEEA}-GQAPGAQKKGSSQGCFGLPLDRIGSLSGLGC-OH; disulfide 15-31; C-terminus assumed) | – | – | – | – | no to minimal | acceptable | no or mild | acceptable | 33.6% | 42.6% | 50.1% | 54.4% |
| CC[C@H](C)[C@@H]1NC(=O)[C@H](CCCNC(=N)N)NC(=O)[C@H](CC(=O)O)NC(=O)[C@H](CC(C)C)NC(=O)[C@@H]2CCCN2C(=O)[C@H](CC(C)C)NC(=O)CNC(=O)[C@H](Cc2ccccc2)NC(=O)[C@@H](NC(=O)CNC(=O)[C@H](CCC(N)=O)NC(=O)[C@H](CO)NC(=O)[C@H](CC(C)C)NC(=O)CNC(=O)[C@H](CCCCN)NC(=O)[C@H](CCCCN)NC(=O)[C@H](CCC(N)=O)NC(=O)[C@H](C)NC(=O)CNC(=O)[C@H](CCCCN)NC(=O)[C@H](Cc2ccc(O)cc2)NC(=O)[C@H](CCCCN)NC(=O)[C@H](CCCNC(=N)N)NC(=O)[C@H](C)NC(=O)COCCOCCNC(=O)COCCOCCNC(=O)COCCOCCNC(=O)COCCOCCNC(=O)CC[C@H](NC(=O)CC[C@H](NC(=O)CC[C@H](NC(=O)CC[C@H](NC(=O)CC[C@H](NC(=O)CCCCCCCCCCCCCCCCC(=O)O)C(=O)O)C(=O)O)C(=O)O)C(=O)O)C(=O)O)CSSC[C@@H](C(=O)O)NC(=O)CNC(=O)[C@H](CC(C)C)NC(=O)CNC(=O)[C@H](CO)NC(=O)[C@H](CC(C)C)NC(=O)[C@H](CO)NC(=O)CNC1=O [compound 9407] ({C18 diacid-γGlu-γGlu-γGlu-γGlu-γGlu-AEEA-AEEA-AEEA-AEEA}-ARKYKGAQKKGLSQGCFGLPLDRIGSLSGLGC-OH; disulfide 16-32) | – | – | – | – | no to minimal | acceptable | no or mild | acceptable | 35.1% | 45.4% | 53.2% | 55.8% |
